In US7348427B2, “Antipathogenic benzamide compounds” (Genesoft Pharmaceuticals, Inc., priority 2001, dated 2008):
Values after ≈ are worked out from the molar mass of the structure shown.

What was measured:
[1] = test system: Bacillus cereus (ATCC 11778); test: MIC, NCCLS broth microdilution assay; assay type: cell-based; settings: A = B. cereus ATCC 11778
Procedure, shortened: (§1)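 The antifungal assay used the Manual of Clinical Microbiology (1995) procedure. […] minimal inhibitory concentrations came from NCCLS broth microdilution per M7-A4, M11-A4 and M27-T.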

[2] = test system: Enterococcus faecium (ATCC 51559, a vancomycin resistant strain (VRE)); test: MIC, NCCLS broth microdilution assay; assay type: cell-based; settings: D = E. faecium ATCC 51559
Procedure, shortened: as §1

[3] = test system: Staphylococcus aureus (ATCC 13709, a methicillin sensitive strain (MSSA)); test: MIC, NCCLS broth microdilution assay; assay type: cell-based; settings: E = S. aureus ATCC 13709
Procedure, shortened: as §1

[4] = test system: Staphylococcus aureus (ATCC 27660, a methicillin resistant strain (MRSA)); test: MIC, NCCLS broth microdilution assay; assay type: cell-based; settings: F = S. aureus ATCC 27660
Procedure, shortened: as §1

[5] = test system: Staphylococcus epidermidis (ATCC 12228); test: MIC, NCCLS broth microdilution assay; assay type: cell-based; settings: G = S. epidermidis ATCC 12228
Procedure, shortened: as §1

[6] = test system: Streptococcus pneumoniae (ATCC 51422, a penicillin resistant strain (PRSP)); test: MIC, NCCLS broth microdilution assay; assay type: cell-based; settings: I = S. pneumoniae ATCC 51422
Procedure, shortened: as §1

[7] = test system: Candida albicans (ATCC 38247); test: Antifungal MIC assay; assay type: cell-based; settings: B = C. albicans ATCC 38247
Procedure, shortened: as §1

[8] = target: dsDNA target sequence AATTAATCAT (352 bp fragment, Plasmid B); test: Quantitative DNase I footprint titration, dsDNA binding; settings: 352 bp/B, 22° C., pH 7.0, read-out: Dissociation Constant Kd
E. faecalis ATCC 29212 = test: MIC, NCCLS broth microdilution assay; assay type: cell-based, Enterococcus faecalis; settings: C = E. faecalis ATCC 29212
Procedure, shortened: (§2)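 MICs were determined by NCCLS broth microdilution following documents M7-A4 and M11-A4 (1997).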

S. pneumoniae ATCC 49619 = test: MIC, NCCLS broth microdilution assay; assay type: cell-based, Streptococcus pneumoniae; settings: H = S. pneumoniae ATCC 49619
Procedure, shortened: as §2

[9] = test system: methicillin resistant Staphylococcus aureus ATCC 33591; test: Murine neutropenic thigh model; assay type: in vivo; settings: neutropenic female CF1 mice, 6 hr after treatment
Method: A S. aureus ATCC 33591 culture was grown to log phase overnight and diluted in phosphate buffered saline (pH 7.2) to an optical density of about 0.1 at 600 nm, giving an approximate concentration of 10^8 cfu/mL. The suspension was diluted 1:100 in phosphate buffered saline (pH 7.2) for a final concentration of 10^6 cfu/mL.
Outbred female CF1 mice (approx. 20 gram body weight) were rendered neutropenic by treatment with cyclophosphamide (200 mg/kg body weight, intraperitoneal injection) at 2 and 4 days prior to inoculation. Groups of 5 mice were inoculated with 0.05 mL of the bacteria (approx. 10^6 cfu/mL) into the anterior thigh. Each group was treated intravenously two hours post infection with vehicle (phosphate buffered saline) or test compound. The mice were sacrificed at either 6 or 24 hrs after treatment and thighs were collected aseptically. Each thigh was weighed, placed into sterile saline, and homogenized. The tissue homogenates were diluted appropriately for plating on agar plates. Colony counts were recorded (cfu/gram) and compared to control groups.
In vivo efficacy was shown by a decrease in colony count (log cfu/gram of tissue) in the compound-treated animals when compared against the colony count in animals given only the vehicle.

[10] = target: dsDNA target sequence AATACT (310 bp fragment, Plasmid A); test: Quantitative DNase I footprint titration, dsDNA binding; settings: 310 bp/A, 22° C., pH 7.0, read-out: Dissociation Constant Kd
[11] = 25 mg/kg intravenously two hours post infection
[12] = 50 mg/kg intravenously two hours post infection
[13] = Staphylococcus aureus, read-out: Minimum Inhibitory Concentration (MIC)

| Compound | Minimum Inhibitory Concentration (MIC) [1] | Minimum Inhibitory Concentration (MIC) [2] | Minimum Inhibitory Concentration (MIC) [3] | Minimum Inhibitory Concentration (MIC) [4] | Minimum Inhibitory Concentration (MIC) [5] | Minimum Inhibitory Concentration (MIC) [6] | Minimum Inhibitory Concentration (MIC) [7] | Kd [8] [nM] | Minimum Inhibitory Concentration (MIC) (E. faecalis ATCC 29212) | Minimum Inhibitory Concentration (MIC) (S. pneumoniae ATCC 49619) | Colony Count (log cfu/gram) Compound [9, 11] [log cfu/gram] | Colony Count (log cfu/gram) Compound [9, 12] [log cfu/gram] | also measured |
| --- | --- | --- | --- | --- | --- | --- | --- | --- | --- | --- | --- | --- | --- |
| Cn1cc(NC(=O)c2cc(NC(=O)c3cc(NC(=O)c4ccc(F)cc4F)cn3C)cn2C)cc1C(=O)NCCN1CCCCCC1 [Compound B-18] | +++ (+++ = MIC ≦ 4) | +++ (+++ = MIC ≦ 4) | +++ (+++ = MIC ≦ 4) | +++ (+++ = MIC ≦ 4) | +++ (+++ = MIC ≦ 4) | +++ (+++ = MIC ≦ 4) | ++ (++ = 4 < MIC < 12) | 2 | +++ (+++ = MIC ≦ 4) | +++ (+++ = MIC ≦ 4) | – | – | – |
| Cn1cc(NC(=O)c2cc(NC(=O)c3cc(NC(=O)c4ccc(F)cc4F)c[nH]3)cn2C)cc1C(=O)NCCN1CCCC1 [Compound A-9] | +++ (+++ = MIC ≦ 4) | +++ (+++ = MIC ≦ 4) | +++ (+++ = MIC ≦ 4) | +++ (+++ = MIC ≦ 4) | +++ (+++ = MIC ≦ 4) | +++ (+++ = MIC ≦ 4) | + (+ = 12 ≦ MIC ≦ 32) | – | +++ (+++ = MIC ≦ 4) | + (+ = 12 ≦ MIC ≦ 32) | 7.11 | 5.11 | – |
| Cc1cc(NC(=O)c2cc(NC(=O)c3cc(NC(=O)c4ccc(Cl)cc4F)c[nH]3)cn2CCCN(C)C)sn1 [Compound D-11] | +++ (+++ = MIC ≦ 4) | +++ (+++ = MIC ≦ 4) | +++ (+++ = MIC ≦ 4) | +++ (+++ = MIC ≦ 4) | +++ (+++ = MIC ≦ 4) | +++ (+++ = MIC ≦ 4) | +++ (+++ = MIC ≦ 4) | – | +++ (+++ = MIC ≦ 4) | +++ (+++ = MIC ≦ 4) | – | 6.25 | – |
| Cc1cc(NC(=O)c2cc(NC(=O)c3cc(NC(=O)c4ccc(F)cc4F)cn3C)cn2CCCN(C)C)sn1 [Compound D-3] | +++ (+++ = MIC ≦ 4) | + (+ = 12 ≦ MIC ≦ 32) | +++ (+++ = MIC ≦ 4) | +++ (+++ = MIC ≦ 4) | +++ (+++ = MIC ≦ 4) | +++ (+++ = MIC ≦ 4) | +++ (+++ = MIC ≦ 4) | – | +++ (+++ = MIC ≦ 4) | +++ (+++ = MIC ≦ 4) | – | 6.28 | – |
| Cn1cc(NC(=O)c2cc(NC(=O)c3cc(NC(=O)c4ccc(Cl)cc4F)c[nH]3)cn2C)cc1C(=O)NCCN1CCOCC1 [Compound A-3] | – | – | – | – | – | – | – | 1 | – | – | – | – | MIC ([1]; Bacillus cereus, ATCC11778, read-out: Minimum Inhibitory Concentration (MIC)): ≤ 4 µg/mL; MIC ([2]; Enterococcus faecium, read-out: Minimum Inhibitory Concentration (MIC)): ≤ 4 µg/mL; MIC [3, 13]: ≤ 4 µg/mL; MIC [4, 13]: ≤ 4 µg/mL; MIC ([5]; Staphylococcus epidermidis, ATCC12228, read-out: Minimum Inhibitory Concentration (MIC)): ≤ 4 µg/mL; MIC ([6]; Streptococcus pneumoniae, read-out: Minimum Inhibitory Concentration (MIC)): ≤ 4 µg/mL; MIC ([7]; Candida albicans, ATCC38247, read-out: Minimum Inhibitory Concentration (MIC)): 12 to 32 µg/mL (≈ 18.8 to 50.1 µM); Kd [10]: 5 nM; MIC (E. faecalis ATCC 29212; Enterococcus faecalis, ATCC29212, read-out: Minimum Inhibitory Concentration (MIC)): ≤ 4 µg/mL; MIC (S. pneumoniae ATCC 49619; Streptococcus pneumoniae, ATCC49619, read-out: Minimum Inhibitory Concentration (MIC)): ≤ 4 µg/mL |
| Cn1cc(NC(=O)c2cc(NC(=O)c3cc(NC(=O)c4ccc(F)cc4F)c[nH]3)cn2C)cc1C(=O)NCCN1CCC(O)CC1 [Compound A-8] | +++ (+++ = MIC ≦ 4) | +++ (+++ = MIC ≦ 4) | +++ (+++ = MIC ≦ 4) | +++ (+++ = MIC ≦ 4) | +++ (+++ = MIC ≦ 4) | +++ (+++ = MIC ≦ 4) | + (+ = 12 ≦ MIC ≦ 32) | – | +++ (+++ = MIC ≦ 4) | +++ (+++ = MIC ≦ 4) | 5.85 | 4.45 | – |
